The text below walks through data of ChEMBL document CHEMBL6121009, “Identification of a selective pyruvate dehydrogenase kinase 1 (PDHK1) chemical probe by virtual screening” (Eur J Med Chem, 2025).

In experiment [1] the target is [Pyruvate dehydrogenase (acetyl-transferring)] kinase isozyme 4, mitochondrial (Homo sapiens, UniProt Q16654).
Description: Inhibition of human PDHK4 using myelin basic protein as substrate pre-incubated for 20 min followed by addition of [gamma-33P]-ATP measured after 2 hrs by Radiometric Hotspot kinase assay
Experiment [2] concerns the target [Pyruvate dehydrogenase (acetyl-transferring)] kinase isozyme 3, mitochondrial (Homo sapiens, UniProt Q15120).
Description: Inhibition of human PDHK3 using myelin basic protein as substrate pre-incubated for 20 min followed by addition of [gamma-33P]-ATP measured after 2 hrs by Radiometric Hotspot kinase assay
Experiment [3] has as its target [Pyruvate dehydrogenase (acetyl-transferring)] kinase isozyme 2, mitochondrial (Homo sapiens, UniProt Q15119).
Description: Inhibition of human PDHK2 using PDHKtide and Mn2+ as substrates pre-incubated for 20 min followed by addition of [gamma-33P]-ATP measured after 2 hrs by Radiometric Hotspot kinase assay

Chain of [Pyruvate dehydrogenase (acetyl-transferring)] kinase isozyme 4, mitochondrial (Q16654 whole entry): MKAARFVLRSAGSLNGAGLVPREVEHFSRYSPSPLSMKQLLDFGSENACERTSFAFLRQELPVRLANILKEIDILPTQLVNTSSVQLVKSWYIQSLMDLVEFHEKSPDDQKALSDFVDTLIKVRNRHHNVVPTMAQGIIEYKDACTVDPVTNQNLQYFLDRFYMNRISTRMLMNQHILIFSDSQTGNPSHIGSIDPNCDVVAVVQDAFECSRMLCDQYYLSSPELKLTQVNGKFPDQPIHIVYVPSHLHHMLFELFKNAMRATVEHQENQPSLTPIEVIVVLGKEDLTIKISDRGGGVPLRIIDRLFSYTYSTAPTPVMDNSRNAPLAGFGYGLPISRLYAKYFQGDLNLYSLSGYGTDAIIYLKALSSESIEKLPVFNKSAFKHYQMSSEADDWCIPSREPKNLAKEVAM
Chain of [Pyruvate dehydrogenase (acetyl-transferring)] kinase isozyme 3, mitochondrial (Q15120 whole entry): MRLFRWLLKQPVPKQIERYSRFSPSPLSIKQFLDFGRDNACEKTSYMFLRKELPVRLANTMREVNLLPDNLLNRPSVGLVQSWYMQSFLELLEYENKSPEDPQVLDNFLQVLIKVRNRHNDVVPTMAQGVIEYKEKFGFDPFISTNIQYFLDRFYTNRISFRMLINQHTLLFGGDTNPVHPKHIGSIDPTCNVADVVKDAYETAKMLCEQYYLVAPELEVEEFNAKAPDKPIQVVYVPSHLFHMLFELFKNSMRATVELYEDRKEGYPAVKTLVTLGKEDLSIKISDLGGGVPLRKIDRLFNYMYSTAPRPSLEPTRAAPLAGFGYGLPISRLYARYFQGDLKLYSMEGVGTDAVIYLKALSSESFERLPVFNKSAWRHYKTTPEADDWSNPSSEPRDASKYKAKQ

For `O=C(O)c1ccc(Br)c(NS(=O)(=O)c2ccc(Cl)s2)c1`, the IC50 in experiment [1], in experiment [2] and in experiment [3] was > 30 µM in each case.

On to `O=C(O)c1ccc(Br)c(NS(=O)(=O)c2cc(Cl)cc(Cl)c2)c1`, for which the IC50 (usually the concentration needed to halve the response being measured) was 17 µM in experiment [1], > 30 µM in experiment [2] and > 30 µM in experiment [3].

Take `COc1cc(C(=O)O)cc(NS(=O)(=O)c2cc(Cl)ccc2C)c1Cl`: the half-inhibitory concentration (IC50) in experiment [1], in experiment [2] and in experiment [3] was > 30 µM in each case.

Take `Cc1ccc(Cl)cc1S(=O)(=O)Nc1cc(C#N)ccc1Br`: the IC50 in experiment [1] is 15.5 µM; in experiment [2] it was > 30 µM; in experiment [3] it was > 30 µM.

Take `Cc1ccc(Cl)cc1S(=O)(=O)Nc1cc(Br)cc(C(=O)O)c1`: the IC50 in experiment [1] is 23.6 µM; in experiment [2] it was > 30 µM; in experiment [3] it was > 30 µM.

Turning to `CSc1ccc(C(=O)O)cc1NS(=O)(=O)c1cc(Cl)ccc1C`, the IC50 in experiment [1], in experiment [2] and in experiment [3] was > 30 µM each time.

Consider `Cc1ccc(Cl)cc1S(=O)(=O)Nc1cc(C(=O)O)ccc1Br`, for which the values for the IC50 in experiment [1], in experiment [2] and in experiment [3] were 30 µM, > 30 µM and > 30 µM, respectively.

In the case of `O=C(O)C(Cl)Cl` [DICHLOROACETIC ACID], the IC50 in experiment [1] is 108 µM; in experiment [2], > 5000 µM; in experiment [3], > 5000 µM.
